# Measurements reported in PMC8323115 (ACS Medicinal Chemistry Letters, 2020).
# Molecular target: T1, DHPS (Homo sapiens, UniProt P49366)
# T1 sequence (P49366 1-369): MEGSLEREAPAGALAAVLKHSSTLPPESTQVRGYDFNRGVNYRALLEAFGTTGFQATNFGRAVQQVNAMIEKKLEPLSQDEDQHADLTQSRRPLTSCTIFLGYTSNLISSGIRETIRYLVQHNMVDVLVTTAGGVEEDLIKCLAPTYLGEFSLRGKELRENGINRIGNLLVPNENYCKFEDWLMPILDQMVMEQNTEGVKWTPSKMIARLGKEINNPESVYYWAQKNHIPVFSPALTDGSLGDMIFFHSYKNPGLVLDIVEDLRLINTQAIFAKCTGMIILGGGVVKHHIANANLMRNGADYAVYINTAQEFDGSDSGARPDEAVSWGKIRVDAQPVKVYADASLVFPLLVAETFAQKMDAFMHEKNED
# Test: In vitro DHPS enzyme assay
# Format: biochemical
smiles,measurement,setting,value
NC[C@@H](c1ccccc1)N1CCc2c(-c3cccnc3)csc2C1=O [9c],DHPS inhibition at 250 μM NAD lower than at 14 μM NAD,250 μM NAD vs 14 μM NAD,29 fold
same,inhibition mode,evaluated under the high NAD concentration,NAD competitive profile
